Source: PubChem BioAssay AID330 (DTP/NCI, 2004)
Where “and” joins values, the source holds several entries; their conditions need not be identical. Identical values can stand only once. Inconclusive results and toxic doses are left out.

System: P388 leukemia ip, CD2F1 mice, survival T/C
Test: NCI In Vivo Anticancer Drug Screen. Data for tumor model P388 Leukemia (intraperitoneal) in CD2F1 (CDF1) mice
Settings: endpoint: median survival time, higher = longer survival
How it was run: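 Mice carrying the transplanted tumor received test compound or vehicle. Survival was recorded in each group, and the value is the treated-group measurement divided by that of the vehicle-treated control group.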

[1] = dose: 50.0 mg/kg/injection, schedule: Q01DX009 (ip), vehicle: saline
[2] = dose: 60.0 mg/kg/injection, schedule: Q01DX005 (ip), vehicle: saline with Tween-80
[3] = dose: 120.0 mg/kg/injection, schedule: Q01DX005 (ip), vehicle: saline with Tween-80
[4] = dose: 240.0 mg/kg/injection, schedule: Q01DX005 (ip), vehicle: saline with Tween-80
[5] = dose: 50.0 mg/kg/injection, schedule: Q01DX009 (ip), vehicle: Klucel (hydroxypropylcellulose) (HPC)
[6] = dose: 100.0 mg/kg/injection, schedule: Q01DX009 (ip), vehicle: Klucel (hydroxypropylcellulose) (HPC)
[7] = dose: 60.0 mg/kg/injection, schedule: Q01DX005 (ip), vehicle: saline
[8] = dose: 120.0 mg/kg/injection, schedule: Q01DX005 (ip), vehicle: saline
[9] = dose: 50.0 mg/kg/injection, schedule: Q01DX005 (ip), vehicle: saline with Tween-80
[10] = dose: 100.0 mg/kg/injection, schedule: Q01DX005 (ip), vehicle: saline with Tween-80
[11] = dose: 200.0 mg/kg/injection, schedule: Q01DX005 (ip), vehicle: saline with Tween-80
[12] = dose: 50.0 mg/kg/injection, schedule: Q01DX009 (ip), vehicle: saline with Tween-80
[13] = dose: 100.0 mg/kg/injection, schedule: Q01DX009 (ip), vehicle: saline with Tween-80
[14] = dose: 12.5 mg/kg/injection, schedule: Q01DX005 (ip), vehicle: Klucel (hydroxypropylcellulose) (HPC)
[15] = dose: 25.0 mg/kg/injection, schedule: Q01DX005 (ip), vehicle: Klucel (hydroxypropylcellulose) (HPC)
[16] = dose: 50.0 mg/kg/injection, schedule: Q01DX005 (ip), vehicle: Klucel (hydroxypropylcellulose) (HPC)
[17] = dose: 200.0 mg/kg/injection, schedule: Q01DX009 (ip), vehicle: saline with Tween-80

## CC(C)(C)c1ccc2c(c1)C(O)(c1ccccc1)C1OC1(C(C)(C)C)C2=O (centres undefined)
[1]
  T/C: 106 % of control
dose: 100.0 mg/kg/injection, schedule: Q01DX009 (ip), vehicle: saline
  T/C: 100 % of control
dose: 200.0 mg/kg/injection, schedule: Q01DX009 (ip), vehicle: saline
  T/C: 91 % of control

## O/N=C(\c1ccccc1)C1c2ccccc2-c2ccccc21
[2]
  T/C: 94 % of control
[3]
  T/C: 94 % of control
[4]
  T/C: 94 % of control

## C=C(C)C1CC2(C)C(C)CC(OC(=O)/C(C)=C\C)CC2C(OC(=O)/C(C)=C\C)C1O (centres undefined)
dose: 12.5 mg/kg/injection, schedule: Q01DX009 (ip), vehicle: Klucel (hydroxypropylcellulose) (HPC)
  T/C: 86 % of control
dose: 25.0 mg/kg/injection, schedule: Q01DX009 (ip), vehicle: Klucel (hydroxypropylcellulose) (HPC)
  T/C: 96 % of control
[5]
  T/C: 96 % of control
[6]
  T/C: 100 % of control

## O=C1NC(=O)c2ccc3c4c(ccc1c24)C(=O)NC3=O
dose: 15.5 mg/kg/injection, schedule: Q01DX009 (ip), vehicle: saline with Tween-80
  T/C: 95 % of control
dose: 31.0 mg/kg/injection, schedule: Q01DX009 (ip), vehicle: saline with Tween-80
  T/C: 95 % of control
dose: 62.0 mg/kg/injection, schedule: Q01DX009 (ip), vehicle: saline with Tween-80
  T/C: 91 % of control

## CCc1onc(-c2noc(CC)c2C)c1C
[7]
  T/C: 98 % of control
[8]
  T/C: 104 % of control
dose: 240.0 mg/kg/injection, schedule: Q01DX005 (ip), vehicle: saline
  T/C: 107 % of control

## Cc1cccc(NC(=S)NNc2nnc(-c3ccccc3)c(-c3ccccc3)n2)c1
[9]
  T/C: 90 % of control
[10]
  T/C: 99 % of control
[11]
  T/C: 100 % of control

## S=c1[nH]ccn1-c1c(Cl)cccc1Cl
[5]
  T/C: 99 % of control
[6]
  T/C: 100 % of control

## Cc1ccc(S(=O)(=O)OCCOc2ccc(-c3nc4ccccc4[nH]3)cc2)cc1
dose: 100.0 mg/kg/injection, schedule: Q01DX001 (ip), vehicle: saline with Tween-80
  T/C: 92 % of control
dose: 200.0 mg/kg/injection, schedule: Q01DX001 (ip), vehicle: saline with Tween-80
  T/C: 90 % of control
dose: 400.0 mg/kg/injection, schedule: Q01DX001 (ip), vehicle: saline with Tween-80
  T/C: 101 % of control

## COc1ccc(CC(N)c2nn[nH]n2)cc1 (centres undefined)
[12]
  T/C: 96 % of control
[13]
  T/C: 98 % of control

## CCN1C2=NCCN2S(=O)(=O)c2ccccc21
[2]
  T/C: 96 % of control
[3]
  T/C: 97 % of control
[4]
  T/C: 97 % of control

## Nc1nc(N)nc(-c2cccc(Cl)c2)n1
[2]
  T/C: 100 % of control
[3]
  T/C: 98 % of control
[4]
  T/C: 100 % of control

## CN1CCCc2cccc(c2)CCC1
[14]
  T/C: 98 % of control
[15]
  T/C: 100 % of control
[16]
  T/C: 99 % of control and 95 % of control

## COc1cc2c(cc1OC)C1C(CC(=O)O)CCCN1CC2 (centres undefined)
[16]
  T/C: 112 % of control
dose: 100.0 mg/kg/injection, schedule: Q01DX005 (ip), vehicle: Klucel (hydroxypropylcellulose) (HPC)
  T/C: 100 % of control
dose: 200.0 mg/kg/injection, schedule: Q01DX005 (ip), vehicle: Klucel (hydroxypropylcellulose) (HPC)
  T/C: 100 % of control

## COC(=O)C(C(=O)OC)=S1C(Cl)=CC=C1Cl
dose: 100.0 mg/kg/injection, schedule: Q04DX003 (ip), vehicle: saline
  T/C: 108 % of control
dose: 200.0 mg/kg/injection, schedule: Q04DX003 (ip), vehicle: saline
  T/C: 104 % of control
dose: 400.0 mg/kg/injection, schedule: Q04DX003 (ip), vehicle: saline
  T/C: 106 % of control

## Cc1cccc(CC(O)c2ccc(C=O)cc2)n1 (centres undefined)
[2]
  T/C: 105 % of control
[3]
  T/C: 98 % of control
[4]
  T/C: 98 % of control

## NC(=O)CCC(N)C(=O)O.[Cl-].[Cl-].[Cl-].[Cl-].[Pt+2] (centres undefined)
dose: 6.25 mg/kg/injection, schedule: Q01DX009 (ip), vehicle: saline
  T/C: 107 % of control
dose: 6.25 mg/kg/injection, schedule: Q01DX009 (ip), vehicle: water
  T/C: 153 % of control
dose: 11.0 mg/kg/injection, schedule: Q01DX009 (ip), vehicle: saline
  T/C: 106 % of control
dose: 12.5 mg/kg/injection, schedule: Q01DX009 (ip), vehicle: saline
  T/C: 110 % of control
dose: 12.5 mg/kg/injection, schedule: Q01DX009 (ip), vehicle: water
  T/C: 154 % of control and 155 % of control
dose: 25.0 mg/kg/injection, schedule: Q01DX009 (ip), vehicle: water
  T/C: 155 % of control
dose: 37.5 mg/kg/injection, schedule: Q01DX009 (ip), vehicle: saline
  T/C: 157 % of control
[1]
  T/C: 152 % of control

## O=c1c2ccccc2sc2c1c(N(CCCl)CCCl)cc1ccccc12
dose: 25.0 mg/kg/injection, schedule: Q01DX005 (ip), vehicle: distilled water + Tween-80
  T/C: 92 % of control
dose: 50.0 mg/kg/injection, schedule: Q01DX005 (ip), vehicle: distilled water + Tween-80
  T/C: 94 % of control
dose: 100.0 mg/kg/injection, schedule: Q01DX005 (ip), vehicle: distilled water + Tween-80
  T/C: 94 % of control
dose: 200.0 mg/kg/injection, schedule: Q01DX005 (ip), vehicle: distilled water + Tween-80
  T/C: 95 % of control

## COC1(CO)C(=O)N(C)CC(=O)N1C (centres undefined)
[7]
  T/C: 106 % of control
[8]
  T/C: 106 % of control

## CCOC(=O)c1c(C)c(-c2ccccc2)c(-c2ccccc2)c(C)c1-c1ccccc1
[12]
  T/C: 97 % of control
[13]
  T/C: 100 % of control
[17]
  T/C: 92 % of control

## Cc1c2oc3c(C)ccc(C(=O)NCCc4ccccc4)c3nc-2c(C(=O)NCCc2ccccc2)c(N)c1=O
dose: 50.0 mg/kg/injection, schedule: Q04DX003 (ip), vehicle: DMSO
  T/C: 92 % of control
dose: 100.0 mg/kg/injection, schedule: Q04DX003 (ip), vehicle: DMSO
  T/C: 91 % of control
dose: 200.0 mg/kg/injection, schedule: Q04DX003 (ip), vehicle: DMSO
  T/C: 90 % of control

## OC1(C#Cc2ccccc2)c2ccccc2C(O)(C#Cc2ccccc2)c2c(C#Cc3ccccc3)cccc21 (centres undefined)
dose: 12.5 mg/kg/injection, schedule: Q01DX009 (ip), vehicle: saline with Tween-80
  T/C: 87 % of control
dose: 25.0 mg/kg/injection, schedule: Q01DX009 (ip), vehicle: saline with Tween-80
  T/C: 95 % of control
[12]
  T/C: 97 % of control
[17]
  T/C: 86 % of control

## NC1=C(Br)C(=O)c2[nH]c(=O)[nH]c(=O)c2C1=O
dose: 6.25 mg/kg/injection, schedule: Q01DX005 (ip), vehicle: Klucel (hydroxypropylcellulose) (HPC)
  T/C: 98 % of control
[14]
  T/C: 100 % of control
[15]
  T/C: 102 % of control
[16]
  T/C: 100 % of control

## COc1ccc(C(C)c2cc3c(cc2OCCO)OCO3)cc1 (centres undefined)
[9]
  T/C: 105 % of control
[10]
  T/C: 102 % of control
[11]
  T/C: 105 % of control

## CC(C)(C)C(=O)Oc1ccc(Br)cc1
dose: 100.0 mg/kg/injection, schedule: Q01DX001 (ip), vehicle: Klucel (hydroxypropylcellulose) (HPC)
  T/C: 106 % of control
dose: 200.0 mg/kg/injection, schedule: Q01DX001 (ip), vehicle: Klucel (hydroxypropylcellulose) (HPC)
  T/C: 106 % of control
dose: 400.0 mg/kg/injection, schedule: Q01DX001 (ip), vehicle: Klucel (hydroxypropylcellulose) (HPC)
  T/C: 108 % of control

## COc1nc2[nH]ccc2c(=O)n1C
[2]
  T/C: 101 % of control
[3]
  T/C: 92 % of control
[4]
  T/C: 89 % of control

## CCC(Cl)C#N (centres undefined)
dose: 7.5 mg/kg/injection, schedule: Q01DX005 (ip), vehicle: saline with Tween-80
  T/C: 106 % of control
dose: 15.0 mg/kg/injection, schedule: Q01DX005 (ip), vehicle: saline with Tween-80
  T/C: 100 % of control

## CC(O)C(=O)NCO (centres undefined)
dose: 50.0 mg/kg/injection, schedule: Q01DX005 (ip), vehicle: saline
  T/C: 104 % of control
dose: 100.0 mg/kg/injection, schedule: Q01DX005 (ip), vehicle: saline
  T/C: 100 % of control
dose: 200.0 mg/kg/injection, schedule: Q01DX005 (ip), vehicle: saline
  T/C: 100 % of control

## CCCNC(=O)OCC1=C(COC(=O)NCCC)C2OC1C(C(=O)OC)=C2C(=O)OC
dose: 12.5 mg/kg/injection, schedule: Q01DX009 (ip), vehicle: distilled water + Tween-80
  T/C: 89 % of control
dose: 25.0 mg/kg/injection, schedule: Q01DX009 (ip), vehicle: distilled water + Tween-80
  T/C: 93 % of control
dose: 50.0 mg/kg/injection, schedule: Q01DX009 (ip), vehicle: distilled water + Tween-80
  T/C: 86 % of control
